One series concerns Hypertensive SHR rats. As to the kind of experiment: Non-invasive measure of arterial pressure in genetically hypertensive (SHR) rats. Format: in vivo, rat (male SHR). Conditions: oral, 40 mg/kg. The method, then:
Male SHR rats (Charles River) of 4-6 months were used in this test. The compounds listed were dissolved in either 0.9% saline or twice distilled water and administered via the oral route (10-40 mg/5 ml/kg).
The animals, housed in individual cages at 23° C. and 60% humidity, had free access to food and drinking water. A BP recorder (Letica) equipped with a two-way polygraph was used. The systolic and diastolic pressure and the heart rate were recorded. The animals, a few days before the test began, were accustomed to be constrained on a heating plate (at 38° C.±1° C. for 20 minutes).
During the pre-tests, assessments were made at time 0 (8^30 -9^30 a.m.) and after 2 and 4 hours.
Every assessment was the average of 3-5 measures and the maximum residence time of the animal in the thermostatized chamber (for the whole test duration) was 40 minutes; the time interval between administrations of different doses of the same compound was 3 days.
(§1) Student's "t" test was used for assessing the differences with respect to the control group and its own 0 time.

The nature of series [1]: Tolerability in mice (oral and intravenous). More on the design: species or system mouse (Male Albino Swiss). To be noted: mouse, in vivo, monitored 7 days. Here is the method:
Male Albino Swiss mice weighing 22-24 g were used in this test.
One group of animals (4/does) which had been kept fasting for 18 hours was orally administered the compounds dissolved in twice distilled water. The same compounds dissolved in saline at pH-7 were intravenously injected in a further group of animals which had free access to food and drinking water. All of the animals were monitored for 7 days.

Series [2] can be described thus: LD50 in mice (intravenous). To be noted: mouse, in vivo, Weil's method. The method, then:
LD50 was assessed according to the Carrol S. Weil's method (Biometrics, pages 249-263 (1952)) on male Albino Swiss mice weighing 22-24 g. The compounds dissolved in […] solution were administered via the intravenous route.

Series [3] deals with Normotensive cats. As to the kind of experiment: Measure of arterial pressure in normotensive cats. Format: in vivo, cat. To be noted: anesthetized cats, crural vein. The method, then:
Normotensive cats of either sex weighing 2.5-3.5 kgs were used in this test.
The animals fasted for 18 hours were anesthetized with Na Nembutal (30 mg/kg) and ethyl urethane (300 mg/kg i.p.). The crural vein and artery of the animals were cannulated, the former for administering the compounds, the latter for monitoring the arterial pressure. The arterial pressure was measured via a mercury gauge connected to a rotating kymograph.
The compounds were dissolved in sterile 0.9% saline and administered at physiological pH in a 0.5 ml/kg volume.

The test system of the next series is Hypertensive DOCA rats. The experiment in a line: Non-invasive measure of arterial pressure in rats made hypertensive (DOCA). Type of series: in vivo, rat (male Wistar). Conditions: oral, 40 mg/kg, 2-4 hours. Here is the method: Male Wistar rats (Charles River) of 4 months were used in this test.
The compounds listed were solubilized in twice distilled water and administered via the oral route (40 mg/5 ml/kg).
The animals, housed in individual cages at 23° C. and 60% humidity, had free access to food and were made to drink 1% saline solution. The animals were administered 20 mg/kg s.c. of deoxycorticosterone acetate (DOCA) for 14 days on end.
A BP recorder (Letica) equipped with a two-way polygraph was used. The systolic and diastolic pressure, and the heart rate were recorded. The animals, a few days before the test began, were accustomed to be constrained on a heating plate (at 38° C.±1° C. for 20 minutes).
During the pre-test, assessments were made at time 0 (8^30 -9^30 a.m.) and after 2 and 4 hours.
Every assessment was the average of 3-5 measures and the maximum residence time of animal in the thermostatized chamber (for the whole test duration) was 40 minutes; the time interval between administrations of different doses of the same compound was 3 days.
as §1

In series [4] the test system is Normotensive cats. As to the kind of experiment: Measure of arterial pressure in normotensive cats. To be noted: dose 40 mg (os); entry (1). Type of series: in vivo, cat.
The mark [5] stands for this setting: intravenous, read-out: Tolerability, i.v.
[6] abbreviates: oral, fasted 18 hours, read-out: Tolerability, os.

Counter-ions that a name gives are not always drawn. Like-named read-outs stand apart in the source and are kept apart here.

One may read the LD50 as the dose expected to kill half of the subjects tested. Low readings indicate greater toxicity, high ones lower toxicity.

Turning to `COc1cc2c(cc1OC)CC(NCC(O)c1ccc(O)cc1)CC2` (stereo not shown) [ST 558, 2-[(N-2-p-hydroxyphenyl-2-ethanol)amino]-6,7-dimethoxy tetraline hydrochloride], the “Arterial pressure in hypertensive SHR rats” value is reported as -13 mm Hg in the series on Hypertensive SHR rats (3 hours) and -31 mm Hg in the series with Hypertensive SHR rats (5 hours). Moreover, the MTD at 168 h in series [1] (setting [5]) and in series [1] (setting [6]) was above 50 mg/kg throughout.

In series [2], `COc1cc2c(cc1OC)CC(NCC(O)c1ccc(C)cc1)CC2` (stereo not shown) [ST 563, 2-[(N-2-p-methylphenyl-2-ethanol)amino]-6,7-dimethoxy tetraline] came in with an LD50 of 35.7 mg/kg. In addition, the “Arterial pressure in hypertensive SHR rats” value with Hypertensive SHR rats (2 hours) is -65 mm Hg. The figures for the MTD at 168 h in series [1] (setting [5]) and in series [1] (setting [6]) were above 20 mg/kg and above 50 mg/kg, respectively.

With `COc1ccc(C(O)CN(CC2CC2)C2CCc3cc(OC)c(OC)cc3C2)cc1` (stereo not shown) [ST 565, 2-[(N-methylcyclopropyl, N-p-methoxy-phenyl-2-ethanol)amino]-6,7-dimethoxy tetraline hydrochloride], the MTD at 168 h in series [1] (setting [6]) was above 50 mg/kg.

Turning to `CCCN(CC(O)c1ccccc1)C1CCc2cc(OC)c(OC)cc2C1` (stereo not shown) [ST 566, 2-[(N-propyl,N-phenyl-2-ethanol)amino]-6,7-dimethoxy tetraline hydrochloride], the values for the MTD at 168 h in series [1] (setting [5]) and in series [1] (setting [6]) were above 20 mg/kg and above 50 mg/kg, respectively.

In series [2], `COc1cc2c(cc1OC)CC(N(CC1CC1)CC(O)c1ccccc1)CC2` (stereo not shown) [ST 567, 2-[(N-methylcyclopropyl, N-phenyl-2-ethanol)amino]-6,7-dimethoxy tetraline hydrochloride] had an LD50 of 30.2 mg/kg. In addition, the MTD at 168 h in series [1] (setting [5]) is above 15 mg/kg; in series [1] (setting [6]), above 50 mg/kg.

Regarding `CCN(CC(O)c1ccccc1)C1CCc2cc(OC)c(OC)cc2C1` (stereo not shown) [ST 570, 2-[(N-ethyl, N-2-phenyl-2-ethanol)amino]-6,7-dimethoxy tetraline hydrochloride], the “Arterial pressure in normotensive cats, hypotension” value (“Arterial pressure … hypotension” below) with Normotensive cats [3] (dose 1 mg/kg) worked out at 64 mm Hg. In the series with Normotensive cats [3] (dose 1 mg/kg), the “Times of effect duration (hypotension in normotensive cats)” value (“Times of effect duration” for short) is “L (long >30 minutes)”. This molecule came in with a 50% lethal dose (LD50) in series [2] of 34.9 mg/kg. In the series with Hypertensive SHR rats (2 hours), the “Arterial pressure in hypertensive SHR rats” value is -29 mm Hg. Also, the MTD at 168 h in series [1] (setting [5]) is above 20 mg/kg; in series [1] (setting [6]) it was above 50 mg/kg.

Regarding `CCCN(CC(O)c1ccc(C)cc1)C1CCc2cc(OC)c(OC)cc2C1` (stereo not shown) [ST 571, 2-[(N-propyl,N-2-p-methylphenyl-2-ethanol)amino]-6,7-dimethoxy tetraline hydrochloride], the “Times of effect duration” value in the series on Normotensive cats [3] (dose 1-2-4 mg/kg) is “M/B”. This molecule came in with an LD50 in series [2] of 42.3 mg/kg. Also, the MTD at 168 h in series [1] (setting [5]) is above 30 mg/kg; in series [1] (setting [6]) it was above 50 mg/kg.

On to `COc1cc2c(cc1OC)CC(N(CC1CC1)CC(O)c1ccc(C)cc1)CC2` (stereo not shown) [ST 574, 2-[(N-methylcyclopropyl, N-p-methylphenyl-2-ethanol)amino]-6,7-dimethoxy tetraline hydrochloride], for which the “Times of effect duration” value in the series with Normotensive cats [3] (dose 1-2-4 mg/kg) is recorded as “M/B”. Moreover, the MTD at 168 h was above 30 mg/kg in series [1] (setting [5]) and above 50 mg/kg in series [1] (setting [6]).

With `CCN(CCc1ccccc1)C1CCc2cc(OC)c(OC)cc2C1` (stereo not shown) [ST 577, 2-[(N-ethyl, N-2-phenylethyl)amino]-6,7-dimethoxy tetraline hydrochloride], the entries for the “Arterial pressure … hypotension” value with Normotensive cats [3] (dose 1 mg/kg) and in the series with Normotensive cats [3] (dose 2 mg/kg) were 20 mm Hg and 44 mm Hg, respectively. Moreover, the “Times of effect duration” value with Normotensive cats [3] (dose 1 mg/kg) is reported as “L (long >30 minutes)”; with Normotensive cats [3] (dose 2 mg/kg), “M (average ≤30 minutes)”. For the same molecule, the LD50 in series [2] is 35.7 mg/kg. Further, the MTD at 168 h in series [1] (setting [5]) was above 20 mg/kg; in series [1] (setting [6]), above 50 mg/kg.

In the case of `COc1ccc(C(O)CNC2CCc3cc(OC)c(OC)cc3C2)cc1` (stereo not shown) [ST 578, 2-[(N-2-p-methoxyphenyl-2-ethanol)amino]-6,7-dimethoxy tetraline hydrochloride], in the series on Normotensive cats [3] (dose 1-2-4 mg/kg), the “Times of effect duration” value is on record as “B/L”. In series [2], this molecule registered an LD50 of 27.7 mg/kg. Moreover, the “Arterial pressure in hypertensive SHR rats” value with Hypertensive SHR rats (3 hours) is on record as -40 mm Hg; with Hypertensive SHR rats (5 hours) it was -27 mm Hg. Moreover, the MTD at 168 h is above 15 mg/kg in series [1] (setting [5]) and above 50 mg/kg in series [1] (setting [6]).

`COc1cc2c(cc1OC)CC(NCC(O)c1ccccc1)CC2` (stereo not shown) [ST 579, 2-[(N-2-phenyl-2-ethanol)amino]-6,7-dimethoxy tetraline hydrochloride]: the “Arterial pressure in hypertensive DOCA rats” value in the series with Hypertensive DOCA rats is on record as -20 mm Hg. The same molecule gave a 50% lethal dose (LD50) in series [2] of 35.7 mg/kg. Moreover, the “Arterial pressure in hypertensive SHR rats” value in the series on Hypertensive SHR rats (2 hours) is -26 mm Hg. Moreover, the results for the MTD at 168 h in series [1] (setting [5]) and in series [1] (setting [6]) were above 20 mg/kg and above 50 mg/kg, respectively.

On to `COc1cc2c(cc1OC)CC(NCC(O)c1ccc(C(F)(F)F)cc1)CC2` (stereo not shown) [ST 590, 2-[(N-2-p-trifluoromethylphenyl-2-ethanol)amino]6,7-dimethoxy tetraline hydrochloride], for which, in the series on Normotensive cats [4], the “Arterial pressure … hypotension” value is 39 mm Hg and the “Times of effect duration” value was “L (long >30 minutes)”. The MTD at 168 h in series [1] (setting [5]) is above 50 mg/kg. In addition, the MTD at 168 h in series [1] (setting [6]) is above 50 mg/kg.

Consider `CCN(CC(O)c1ccc(C(F)(F)F)cc1)C1CCc2cc(OC)c(OC)cc2C1` (stereo not shown) [ST 592, 2-[(N-ethyl, N-2-p-trifluoromethylphenyl-2-ethanol)-amino]-6,7-dimethoxy tetraline hydrochloride], for which the MTD at 168 h in series [1] (setting [5]) is above 30 mg/kg; in series [1] (setting [6]), above 50 mg/kg.

Take `COc1cc2c(cc1OC)CC(NCC(O)c1ccc(F)cc1)CC2` (stereo not shown) [ST 593, 2-[(N-2-p-fluorophenyl-2-ethanol)amino]-6,7-dimethoxy tetraline hydrochloride]: the “Arterial pressure … hypotension” value in the series with Normotensive cats [3] (dose 1 mg/kg) worked out at 12 mm Hg; in the series on Normotensive cats [3] (dose 2 mg/kg), 16 mm Hg; in the series with Normotensive cats [3] (dose 4 mg/kg), 26 mm Hg. For the same molecule, the “Times of effect duration” value with Normotensive cats [3] (dose 1-2-4 mg/kg) is listed as “M/B”. In addition, the MTD at 168 h in series [1] (setting [5]) and in series [1] (setting [6]) was above 50 mg/kg in each case.

`COc1cc2c(cc1OC)CC(NCC(OC)c1ccccc1)CC2` (stereo not shown) [ST 600, 2-[(N-2-phenyl-2-methoxyethyl)amino]-6,7-dimethoxy tetraline hydrochloride]: the “Arterial pressure … hypotension” value with Normotensive cats [3] (dose 2 mg/kg) is given as 28 mm Hg; with Normotensive cats [3] (dose 4 mg/kg), 54 mm Hg. Further, the results for the “Times of effect duration” value in the series with Normotensive cats [3] (dose 2 mg/kg) and in the series on Normotensive cats [3] (dose 4 mg/kg) were “B (short <5 minutes)” and “M (average ≤30 minutes)”, respectively. The molecule further came in with an LD50 in series [2] of 29.7 mg/kg. The MTD at 168 h in series [1] (setting [5]) is above 20 mg/kg; in series [1] (setting [6]), above 50 mg/kg.

These data come from patent publication US5047433A, “N-alkyl derivatives of 2-amino-6,7-dimethoxy tetraline and pharmaceutical compositions having antihypertensive activity containing same” (Sigma-Tau Industrie Farmaceutiche Riunite S.p.A., priority 1986, dated 1991).
